Converted amounts (≈) assume the structure as drawn.

The experiment has as its system Biomphalaria glabrata. As to the kind of experiment: Molluscicidal activity against Biomphalaria glabrata assessed as heartbeat measured after 24 hr. The class given is functional. The note with it: read-out: LD50 (the source's name).
In the case of `CC1(C)CC[C@]2(C(=O)O)CC[C@]3(C)C(=CC[C@@H]4[C@@]5(C)CC[C@H](O[C@@H]6O[C@H](CO)[C@@H](O)[C@H](O)[C@H]6O[C@@H]6O[C@H](CO)[C@@H](O)[C@H](O[C@@H]7O[C@H](CO)[C@@H](O)[C@H](O)[C@H]7O[C@@H]7O[C@H](CO)[C@@H](O)[C@H](O)[C@H]7O)[C@H]6O)C(C)(C)[C@@H]5CC[C@]43C)[C@@H]2C1` [PACHYELASIDE B], the LC50 came out at 2 µg/mL (≈ 1.81 µM).

Turning to `CC1(C)C[C@H]2C3=CC[C@@H]4[C@@]5(C)CC[C@H](O[C@@H]6O[C@H](CO)[C@@H](O[C@@H]7OC[C@@H](O)[C@H](O)[C@H]7O)[C@H](O)[C@H]6O[C@@H]6OC[C@@H](O)[C@H](O[C@@H]7O[C@H](CO)[C@@H](O)[C@H](O)[C@H]7O[C@@H]7O[C@H](CO)[C@@H](O)[C@H](O)[C@H]7O)[C@H]6O)C(C)(C)[C@@H]5CC[C@@]4(C)[C@]3(C)CC[C@@]2(C(=O)O)C[C@@H]1OC(=O)/C=C/c1ccccc1` [PACHYELASIDE C], the LC50 was 2 µg/mL (≈ 1.48 µM).

Take `CC1(C)C[C@H]2C3=CC[C@@H]4[C@@]5(C)CC[C@H](O[C@@H]6O[C@H](CO)[C@@H](O[C@@H]7OC[C@@H](O)[C@H](O)[C@H]7O)[C@H](O)[C@H]6O[C@@H]6O[C@H](CO)[C@@H](O)[C@H](O[C@@H]7O[C@H](CO)[C@@H](O)[C@H](O)[C@H]7O[C@@H]7O[C@H](CO)[C@@H](O)[C@H](O)[C@H]7O)[C@H]6O)C(C)(C)[C@@H]5CC[C@@]4(C)[C@]3(C)CC[C@@]2(C(=O)O)C[C@@H]1OC(=O)/C=C/c1ccccc1` [PACHYELASIDE D]: the LC50 came to 8 µg/mL (≈ 5.78 µM).

`CC1(C)C[C@H]2C3=CC[C@@H]4[C@@]5(C)CC[C@H](O[C@@H]6O[C@H](CO)[C@@H](O)[C@H](O)[C@H]6O[C@@H]6O[C@H](CO)[C@@H](O)[C@H](O[C@@H]7O[C@H](CO)[C@@H](O)[C@H](O)[C@H]7O[C@@H]7O[C@H](CO)[C@@H](O)[C@H](O)[C@H]7O)[C@H]6O)C(C)(C)[C@@H]5CC[C@@]4(C)[C@]3(C)CC[C@@]2(C(=O)O)C[C@@H]1OC(=O)/C=C/c1ccccc1` [PACHYELASIDE-A]: the LC50 worked out at 2 µg/mL (≈ 1.6 µM).

Source of the values: ChEMBL document CHEMBL3044835, “Pachyelasides A-D, novel molluscicidal triterpene saponins from Pachyelasma tessmannii” (2005).
